Data reported in PubChem BioAssay AID220 (DTP/NCI, 2004).
Several values for one entry are separate records, joined by “and”; a condition that tells them apart may be missing. Identical values can stand only once. Inconclusive results are not listed.

Tested on: CD8F1 mice, subcutaneous mammary adenocarcinoma, T/C%
Assay: NCI In Vivo Anticancer Drug Screen. Data for tumor model Mammary Adenocarcinoma CD8F1 (subcutaneous) in CD8F1
Conditions: higher = larger tumour
Summary of the method: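 Ratio of treated to vehicle-control outcome, based on either survival or tumor size, in mice bearing transplantable tumors given the test compound.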

[1] = endpoint: median tumor weight change, dose: 125.0 mg/kg/injection, schedule: Q01DX001 (ip), vehicle: saline
[2] = endpoint: median tumor weight change, dose: 250.0 mg/kg/injection, schedule: Q01DX001 (ip), vehicle: saline
[3] = endpoint: median tumor weight (est.), dose: 12.5 mg/kg/injection, schedule: Q07DX005 (ip), vehicle: saline
[4] = endpoint: median tumor weight (est.), dose: 25.0 mg/kg/injection, schedule: Q07DX005 (ip), vehicle: saline
[5] = endpoint: median tumor weight (est.), dose: 50.0 mg/kg/injection, schedule: Q07DX005 (ip), vehicle: saline
[6] = endpoint: median tumor weight (est.), dose: 100.0 mg/kg/injection, schedule: Q07DX005 (ip), vehicle: saline

In the case of `O=C1CCC(=O)N1CO`, the T/C [1] is reported as 97 % of control, the T/C [2] is reported as 89 % of control and the T/C (endpoint: median tumor weight change, dose: 500.0 mg/kg/injection, schedule: Q01DX001 (ip), vehicle: saline) is reported as 81 % of control. The T/C (endpoint: median tumor weight change, dose: 1000.0 mg/kg/injection, schedule: Q01DX001 (ip), vehicle: saline) was 75 % of control.
`Cc1ccc2nc(-c3ccc4nc(-c5ccc(N=Nc6ccc(-c7nc8ccc(-c9nc%10ccc(C)c(S(=O)(=O)O)c%10s9)cc8s7)cc6)cc5)sc4c3)sc2c1S(=O)(=O)O` was tested, and the T/C (endpoint: median tumor weight change, dose: 125.0 mg/kg/injection, schedule: Q01DX001 (ip), vehicle: suspension in saline) was 94 % of control and the T/C (endpoint: median tumor weight change, dose: 250.0 mg/kg/injection, schedule: Q01DX001 (ip), vehicle: suspension in saline) was 62 % of control.
`O=c1[nH]c(=O)n(C2CC(O)C(CO)O2)cc1F` (centres undefined) was tested, and the T/C (endpoint: mean tumor weight, dose: 25.0 mg/kg/injection, schedule: Q01DX009 (ip), vehicle: saline) was 50 % of control, the T/C (endpoint: mean tumor weight, dose: 50.0 mg/kg/injection, schedule: Q01DX009 (ip), vehicle: saline) was 20 % of control and the T/C (endpoint: mean tumor weight, dose: 100.0 mg/kg/injection, schedule: Q01DX009 (ip), vehicle: saline) was 30 % of control. For the same compound, the T/C (endpoint: mean tumor weight, dose: 125.0 mg/kg/injection, schedule: Q07DX005 (ip), vehicle: saline) was 585 % of control, the T/C (endpoint: mean tumor weight, dose: 125.0 mg/kg/injection, schedule: Q07DX006 (ip), vehicle: saline) was 49 % of control and the T/C (endpoint: mean tumor weight, dose: 250.0 mg/kg/injection, schedule: Q07DX005 (ip), vehicle: saline) was 180 % of control. For the same compound, the T/C (endpoint: mean tumor weight, dose: 250.0 mg/kg/injection, schedule: Q07DX006 (ip), vehicle: saline) was 6 % of control, the T/C (endpoint: mean tumor weight, dose: 500.0 mg/kg/injection, schedule: Q07DX005 (ip), vehicle: saline) was 473 % of control and the T/C [3] was 97 % of control. The T/C [4] was 116 % of control, the T/C [5] was 72 % of control and 81 % of control and the T/C [6] was 62 % of control and 78 % of control. The T/C (endpoint: median tumor weight (est.), dose: 200.0 mg/kg/injection, schedule: Q07DX005 (ip), vehicle: saline) was 27 % of control and 46 % of control and the T/C (endpoint: median tumor weight (est.), dose: 400.0 mg/kg/injection, schedule: Q07DX005 (ip), vehicle: saline) was 5 % of control and 11 % of control.
In the case of `NC1=NC(=O)N2CC12` (centres undefined), the T/C [1] is reported as 115 % of control and the T/C [2] is reported as 122 % of control.
`Oc1ccc(CCl)c2cccnc12` was tested, and the T/C (endpoint: median tumor weight change, dose: 62.5 mg/kg/injection, schedule: Q01DX001 (ip), vehicle: saline) was 54 % of control and the T/C [1] was 78 % of control.
With `CC(/C=N/N=C(N)N)=N\N=C(N)N` the T/C (endpoint: median tumor weight (est.), dose: 6.25 mg/kg/injection, schedule: Q07DX005 (ip), vehicle: saline) was 100 % of control, the T/C [3] was 85 % of control and the T/C [4] was 110 % of control. The T/C [6] was 67 % of control.
In the case of `CC(=O)N(C)O`, the T/C (endpoint: median tumor weight change, dose: 125.0 mg/kg/injection, schedule: Q01DX001 (ip), vehicle: saline with Tween-80) is reported as 80 % of control, the T/C (endpoint: median tumor weight change, dose: 250.0 mg/kg/injection, schedule: Q01DX001 (ip), vehicle: saline with Tween-80) is reported as 63 % of control and the T/C (endpoint: median tumor weight change, dose: 500.0 mg/kg/injection, schedule: Q01DX001 (ip), vehicle: saline with Tween-80) is reported as 50 % of control.
For `CN(C)CCN1C(=O)c2cccc3cc([N+](=O)[O-])cc(c23)C1=O`, the T/C (endpoint: median tumor weight change, dose: 7.5 mg/kg/injection, schedule: Q01DX001 (ip), vehicle: saline with Tween-80) was 57 % of control, the T/C (endpoint: median tumor weight change, dose: 15.0 mg/kg/injection, schedule: Q01DX001 (ip), vehicle: saline with Tween-80) was 91 % of control and the T/C (endpoint: median tumor weight change, dose: 30.0 mg/kg/injection, schedule: Q01DX001 (ip), vehicle: saline with Tween-80) was 55 % of control.
For `O=c1[nH]cc(F)c(=O)[nH]1`, the T/C (endpoint: mean tumor weight (est.), dose: 50.0 mg/kg/injection, schedule: Q07DX004 (ip), vehicle: saline) was 28 % of control, the T/C (endpoint: mean tumor weight (est.), dose: 50.0 mg/kg/injection, schedule: Q07DX004 (iv), vehicle: saline) was 25 % of control and the T/C (endpoint: mean tumor weight (est.), dose: 100.0 mg/kg/injection, schedule: Q07DX003 (ip), vehicle: saline) was 15 % of control. The T/C (endpoint: mean tumor weight (est.), dose: 100.0 mg/kg/injection, schedule: Q07DX004 (ip), vehicle: saline) was 2 % of control, the T/C (endpoint: mean tumor weight (est.), dose: 100.0 mg/kg/injection, schedule: Q07DX004 (iv), vehicle: saline) was 3 % of control and the T/C (endpoint: mean tumor weight (est.), dose: 115.0 mg/kg/injection, schedule: Q07DX003 (ip), vehicle: saline) was 14 % of control. The T/C (endpoint: mean tumor weight (est.), dose: 130.0 mg/kg/injection, schedule: Q07DX003 (ip), vehicle: saline) was 5 % of control, the T/C (endpoint: mean tumor weight, dose: 5.0 mg/kg/injection, schedule: Q01DX009 (ip), vehicle: saline) was 159 % of control and the T/C (endpoint: mean tumor weight, dose: 10.0 mg/kg/injection, schedule: Q01DX009 (ip), vehicle: saline) was 199 % of control. The T/C (endpoint: mean tumor weight, dose: 20.0 mg/kg/injection, schedule: Q01DX009 (ip), vehicle: saline) was 4 % of control, the T/C (endpoint: mean tumor weight, dose: 25.0 mg/kg/injection, schedule: Q07DX006 (ip), vehicle: saline) was 105 % of control and the T/C (endpoint: mean tumor weight, dose: 25.0 mg/kg/injection, schedule: Q07DX007 (ip), vehicle: saline) was 92 % of control. The T/C (endpoint: mean tumor weight, dose: 50.0 mg/kg/injection, schedule: Q07DX006 (ip), vehicle: saline) was 10 % of control, the T/C (endpoint: mean tumor weight, dose: 50.0 mg/kg/injection, schedule: Q07DX007 (ip), vehicle: saline) was 11 % of control and the T/C (endpoint: median tumor weight (est.), dose: 5.0 mg/kg/injection, schedule: Q01DX005 (ip), vehicle: saline) was 176 % of control. For the same compound, the T/C (endpoint: median tumor weight (est.), dose: 10.0 mg/kg/injection, schedule: Q01DX005 (ip), vehicle: saline) was 20 % of control, the T/C (endpoint: median tumor weight (est.), dose: 15.0 mg/kg/injection, schedule: Q04DX005 (ip), vehicle: saline) was 17 % of control and the T/C (endpoint: median tumor weight (est.), dose: 15.0 mg/kg/injection, schedule: Q07DX005 (ip), vehicle: saline) was 4 % of control. For the same compound, the T/C (endpoint: median tumor weight (est.), dose: 20.0 mg/kg/injection, schedule: Q01DX005 (ip), vehicle: saline) was 49 % of control, the T/C (endpoint: median tumor weight (est.), dose: 25.0 mg/kg/injection, schedule: Q01DX005 (ip), vehicle: saline) was 39 % of control and the T/C (endpoint: median tumor weight (est.), dose: 25.0 mg/kg/injection, schedule: Q04DX005 (ip), vehicle: saline) was 30 % of control. For the same compound, the T/C [4] was 19 % of control, the T/C (endpoint: median tumor weight (est.), dose: 27.0 mg/kg/injection, schedule: Q07DX005 (ip), vehicle: saline) was 86 % of control and the T/C (endpoint: median tumor weight (est.), dose: 30.0 mg/kg/injection, schedule: Q04DX005 (ip), vehicle: saline) was 24 % of control. For the same compound, the T/C (endpoint: median tumor weight (est.), dose: 30.0 mg/kg/injection, schedule: Q07DX005 (ip), vehicle: saline) was 5 % of control, the T/C (endpoint: median tumor weight (est.), dose: 37.5 mg/kg/injection, schedule: Q01DX005 (ip), vehicle: saline) was 14 % of control and the T/C (endpoint: median tumor weight (est.), dose: 37.5 mg/kg/injection, schedule: Q04DX005 (ip), vehicle: saline) was 24 % of control. For the same compound, the T/C (endpoint: median tumor weight (est.), dose: 37.5 mg/kg/injection, schedule: Q07DX005 (ip), vehicle: saline) was 27 % of control, the T/C (endpoint: median tumor weight (est.), dose: 40.0 mg/kg/injection, schedule: Q07DX005 (ip), vehicle: saline) was 48 % of control and the T/C (endpoint: median tumor weight (est.), dose: 50.0 mg/kg/injection, schedule: Q04DX005 (ip), vehicle: saline) was 9 % of control. The T/C [5] was 2 % of control, the T/C (endpoint: median tumor weight (est.), dose: 60.0 mg/kg/injection, schedule: Q07DX005 (ip), vehicle: saline) was 18 % of control and the T/C (endpoint: median tumor weight (est.), dose: 89.0 mg/kg/injection, schedule: Q01DX001 (ip), vehicle: saline) was 30 % of control. The T/C (endpoint: median tumor weight (est.), dose: 90.0 mg/kg/injection, schedule: Q07DX005 (ip), vehicle: saline) was 9 % of control, the T/C (endpoint: median tumor weight (est.), dose: 133.0 mg/kg/injection, schedule: Q01DX001 (ip), vehicle: saline) was 22 % of control and the T/C (endpoint: median tumor weight (est.), dose: 200.0 mg/kg/injection, schedule: Q01DX001 (ip), vehicle: saline) was 21 % of control. The T/C (endpoint: median tumor weight (est.), dose: 270.0 mg/kg/injection, schedule: Q01DX001 (ip), vehicle: saline) was 17 % of control, the T/C (endpoint: median tumor weight change, dose: 25.0 mg/kg/injection, schedule: Q01DX001 (ip), vehicle: saline) was 103 % of control and the T/C (endpoint: median tumor weight change, dose: 50.0 mg/kg/injection, schedule: Q01DX001 (ip), vehicle: saline) was 61 % of control. For the same compound, the T/C (endpoint: median tumor weight change, dose: 100.0 mg/kg/injection, schedule: Q01DX001 (ip), vehicle: saline) was 33 % of control.
With `C(COCCOCC1CO1)OCCOCC1CO1` (centres undefined) the T/C (endpoint: median tumor weight (est.), dose: 12.5 mg/kg/injection, schedule: Q07DX005 (ip), vehicle: saline with Tween-80) was 69 % of control, the T/C (endpoint: median tumor weight (est.), dose: 25.0 mg/kg/injection, schedule: Q07DX005 (ip), vehicle: saline with Tween-80) was 91 % of control and the T/C (endpoint: median tumor weight (est.), dose: 50.0 mg/kg/injection, schedule: Q07DX005 (ip), vehicle: saline with Tween-80) was 68 % of control. For the same compound, the T/C (endpoint: median tumor weight (est.), dose: 100.0 mg/kg/injection, schedule: Q07DX005 (ip), vehicle: saline with Tween-80) was 110 % of control and the T/C (endpoint: median tumor weight (est.), dose: 400.0 mg/kg/injection, schedule: Q07DX005 (ip), vehicle: saline with Tween-80) was 112 % of control.
